Data on 3 compounds can be found in patent publication US5635510A, “Substituted pyrrolidin-3-yl-alkyl-piperidines” (Merrell Pharmaceuticals Inc., priority 1994, dated 1997).

Assay [1] deals with T1, NK2 receptor (Bos taurus, UniProt P05363).
T1 construct: expressed in transfected cells; host or cells: SKLKB82#3 cells
T1 sequence (P05363 1-384): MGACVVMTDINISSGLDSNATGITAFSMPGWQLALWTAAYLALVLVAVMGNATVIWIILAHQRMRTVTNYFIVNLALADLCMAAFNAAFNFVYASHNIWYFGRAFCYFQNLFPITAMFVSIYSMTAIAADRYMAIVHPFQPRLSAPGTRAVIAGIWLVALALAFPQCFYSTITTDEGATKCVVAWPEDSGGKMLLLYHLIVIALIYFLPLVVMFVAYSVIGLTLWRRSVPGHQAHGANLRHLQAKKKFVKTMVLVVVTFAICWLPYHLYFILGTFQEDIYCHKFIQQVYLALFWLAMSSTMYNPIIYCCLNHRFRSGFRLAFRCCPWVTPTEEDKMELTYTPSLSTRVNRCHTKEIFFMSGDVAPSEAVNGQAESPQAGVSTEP
As to the kind of experiment: Antagonism of NK2 receptor mediated (NKA-induced) phosphatidylinositol turnover in SKLKB82#3 cells. The format is cell-based. The protocol:
Tachykinin-mediated inositol phosphate accumulation was measured in UC11 or SKLKB82#3 cells in the presence and absence of NK1 or NK2 receptor antagonists, respectively. Tissues were incubated in Krebs-Henseleit buffer at 37° C. with 95% O2 -5% CO2 gassing. Tissues were then incubated with fresh buffer containing 100 μCi of myo-[2-3H(N)] inositol at 37° C. for 60 min with gentle gassing. After washing twice in 5 ml room temperature buffer containing 10 mM LiCl, tissues were incubated for 30 min at room temperature with a buffer change at 15 min. Buffer was removed and Krebs-Henseleit buffer (containing 40 μg/ml bacitracin, 4 μg/ml each of leupeptin and chymostatin, 0.1% bovine serum albumin and 10 mM each of thiorphan and LiCl) added. After 15 min, SP was added to UC11 cells or NKA to SKLKB82#3 cells at various concentrations to start the reaction. After incubation for 60 min at room temperature the reaction was terminated by addition of 930 μl chloroform: methanol (1:2 by volume) to each tube, followed by 310 μl chloroform and 310 μl doubly distilled water. Samples were vortexed, centrifuged, and 0.9 ml of the aqueous (top) phase removed and added to 2 ml ddH2 O. The mixture was vortexed and loaded onto a 50% Bio-Rad AG 1-X8 (formate form, 100-200 mesh) exchange column (Bio-Rad Laboratories, Hercules, Calif.). The columns were washed, in order, with: 1) 10 ml doubly distilled water, 2) 5 ml of 5 mM disodium tetraborate/60 mM sodium formate, and 3) 5 ml of 1M ammonium formate/0.1M formic acid. The third elution was collected and 1 ml counted in 7 ml scintillation fluid. A 50 μl aliquot of the organic (bottom) phase was removed, dried in a scintillation vial and counted in 7 ml scintillation fluid.
The ratio of DPM in the aqueous phase aliquot (total inositol phosphates) to the DPM in the 50 μl organic phase aliquot (total [^3 H]inositol incorporated) was calculated for each sample. Data are expressed as a percent of agonist-induced accumulation of [^3 H]-inositol phosphates over basal levels. […] Dose-response graphs were constructed and the abilities of the test compounds to inhibit tachykinin-induced phosphatidyinositol turnover determined with the aid of a computer program. […] Data is expressed as percent stimulation of total inositol phosphate accumulation over basal levels and normalized to the maximum response produced by SP. […] Schild analysis is performed using dose response curves (such as those presented in FIGS. 1a and 1b) to obtain a value indicative of the strength of a competitive antagonist and is expressed as the pA2, which is the negative logarithm of the molar concentration of antagonist which reduces the effect of a dose of agonist to one-half of that expected at the dose of agonist.

The target in the next assay is T2, NK1 receptor (Cavia porcellus, UniProt P30547).
T2 construct: evaluated in guinea pig lungs; tissue Keystone Biologicals, Cleveland, OH; host or cells: guinea pig lung
T2 sequence (P30547 whole entry): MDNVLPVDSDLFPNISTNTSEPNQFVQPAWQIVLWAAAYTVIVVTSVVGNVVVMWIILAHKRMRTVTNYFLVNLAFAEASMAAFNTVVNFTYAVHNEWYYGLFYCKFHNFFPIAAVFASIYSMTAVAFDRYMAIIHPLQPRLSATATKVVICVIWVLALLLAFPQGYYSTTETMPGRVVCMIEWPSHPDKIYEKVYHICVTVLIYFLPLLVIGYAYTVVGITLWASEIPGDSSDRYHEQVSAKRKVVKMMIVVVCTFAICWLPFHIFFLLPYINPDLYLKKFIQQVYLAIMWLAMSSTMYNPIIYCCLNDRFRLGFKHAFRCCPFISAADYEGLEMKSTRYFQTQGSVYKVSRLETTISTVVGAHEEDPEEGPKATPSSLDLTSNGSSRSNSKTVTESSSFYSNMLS
As to the kind of experiment: Antagonism of SP-induced plasma protein extravasation in guinea pig trachea. The format is in vivo. The procedure: SP-induced protein leakage through postcapillary venules was assessed by measuring Evans Blue dye accumulation in guinea pig trachea. Animals were anesthetized with pentobarbital then injected with Evans Blue dye (20 mg/kg, i.v., prepared in 0.9% NaCl solution). One minute after dye administration, the antagonist was administered (i.v.) followed by SP (0.3 nmole/kg, i.v.) and, after 5 min, excess dye removed from the circulation by transcardiac perfusion with 50 ml 0.9% NaCl solution. The trachea and primary bronchi were removed, blotted dry and weighed. Dye quantitation was performed spectrophotometrically ([…]) after extracting tissues in formamide for 24 hr at 50° C.. Values were subtracted from background (dye only, no agonist). ED50 (dose of compound which inhibits SP-induced plasma protein extravasation by 50%) was calculated from linear regression analysis.

The subject of assay [2] is NK2 receptor. The assay can be described thus: Antagonism of NKA-induced respiratory effects in conscious guinea pigs. The class given is in vivo, guinea pig. Particulars: for dyspnea incidence / dyspnea onset: i.v. 20 min prior to NKA aerosol (0.05%); for effect on NKA-induced respiratory effects (in words): NKA aerosol, dose dependent; for dyspnea onset: mean and SEM. The procedure:
In vivo experiments were performed using male Duncan Hartley guinea pigs (250-350g). Changes in conscious breathing patterns were monitored in four animals simultaneously using modified whole body plethysmography consisting of four small plexiglass boxes each connected to a reference box via Validyne DP 45-16 differential pressure transducers. The 4 boxes were equipped with an air supply line (also used for aerosol delivery) and an exhaust air line. Supply and exhaust lines were of the same length and narrow bore and arose from a common supply chamber and vented to a common exhaust chamber. This system was used to ensure that fluctuations in supply air and atmospheric pressure would remain in phase and be eliminated from the net signal by the differential pressure transducers. The analog pressure signals were digitalized via a Data Translation DT2821 A to D board. Data were collected at a rate of 100 samples/second/animal. Each cycle of pressure change was analyzed using the following parameters: rising and falling slope determined between minimum and maximum pressures, the ratio of rising over falling slope, and the magnitude of the change between initial trough pressure and peak cycle pressure. Using these values (and observing the animals) the pressure cycles were characterized into normal breaths, forced exhalations (apparent by abdominal heaving), significant respiratory events (SREs; usually coughs, less often sneezes or gasps which were characterized by transient, extremely large pressure increases which were distinguishable from noise) and movement/noise with a PCAT 286 running a System V UNIX operating system. Dyspnea was defined as a significant, sustained increase in plethysmograph pressure which was associated with an observable shift to labored breathing in the animal.
During the course of a typical experiment in which airway responsiveness to various bronchoconstricting agents was examined, aerosols were delivered for 19 min (0.33 ml/min) using a DeVilbiss Ultraneb 99 ultrasonic nebulizer and animals monitored during this time. Prior to nebulization, 1 min of resting breathing was collected to establish a baseline pressure. […] The vehicle for nebulization of all bronchoconstrictive agents was phosphate buffered saline (pH 7.4) which elicited no respiratory effects itself. Putative tachykinin antagonists were administered either (i.v.) 20 min prior to onset of aerosol exposure or orally 1 hour prior to onset (to guinea pigs after an overnight fast).

With `COc1cc(C(=O)N2CCC(CCN3CCC(C(N)=O)(c4ccccc4)CC3)(c3ccc(Cl)c(Cl)c3)C2)cc(OC)c1OC` (centres unmarked) [Example 3, 1-[2-[3-(3,4-dichloro-phenyl)-1-(3,4,5-trimethoxy-benzoyl)-pyrrolidin-3-yl]-ethyl]-4-phenyl-piperidine-4-carboxylic acid amide], the “antagonism of NKA-induced PI turnover (in words)” value at NK2 receptor [1] (SKLKB82#3 cells, FIG. 1b) was “antagonizes both NK1 (on UC11 cells) and NK2 (on SKLKB82#3) receptors in a dose-dependent manner”. For the same compound, the “relative potency against SP-induced plasma protein extravasation (in words)” value at NK1 receptor (i.v.) was “equipotent NK-1 receptor antagonists”. In addition, the “antagonism of SP-induced plasma protein extravasation (in words)” value on NK1 receptor (i.v., FIG. 2) was “dose related antagonism of SP-induced plasma protein extravasation in guinea pig trachea”. Besides, the dyspnea incidence with NK2 receptor [2] (5 mg/kg) turned out to be 86%; in the assay with NK2 receptor [2] (10 mg/kg), 60%. Further, the “effect on NKA-induced respiratory effects (in words)” value in the assay with NK2 receptor [2] was “reduced the effects of NKA aerosol”.
The ED50 is the midpoint of the dose-response relation. Take `COc1cc(C(=O)N2CCC(CCN3CCC(C(N)=O)(c4ccccc4)CC3)(c3ccc(Cl)c(Cl)c3)C2)cc(OC)c1OC.Cl` (single isomer, unassigned; (+)) [Example 20A, (+)-1-[2-[3-(3,4-dichloro-phenyl)-1-(3,4,5-trimethoxy-benzoyl)-pyrrolidin-3-yl]-ethyl]-4-phenyl-piperidine-4-carboxylic acid amide hydrochloride]: the ED50 on NK1 receptor (guinea pig, iv, i.v. 2 min prior to SP, mean (95% confidence limits), at least 3 doses, at least 4 animals per dose, read-out: ED50 for inhibition of SP-induced plasma protein extravasation) worked out at 0.2 mg/kg. In addition, on NK1 receptor (i.v.), the “relative potency against SP-induced plasma protein extravasation (in words)” value is given as “equipotent NK-1 receptor antagonists”. Moreover, the dyspnea incidence in the assay with NK2 receptor [2] (1 mg/kg) amounted to 100%; with NK2 receptor [2] (5 mg/kg) it was 90%; with NK2 receptor [2] (10 mg/kg), 70%. Also, the figures for the dyspnea onset with NK2 receptor [2] (1 mg/kg), in the assay on NK2 receptor [2] (5 mg/kg) and in the assay on NK2 receptor [2] (10 mg/kg) were 451 ± 30 s, 706 ± 82 s and 829 ± 105 s, respectively. Also, the “effect on NKA-induced respiratory effects (in words)” value in the assay on NK2 receptor [2] is “reduced the effects of NKA aerosol”.
As a reminder, the Kb is the affinity of an antagonist, worked out from how it opposes an agonist. Higher therefore signals lower antagonist affinity. For `COc1cc(C(=O)N2CCC(CCN3CCC(C(N)=O)(c4ccccc4)CC3)(c3ccc(Cl)c(Cl)c3)C2)cc(OC)c1OC` (single isomer, unassigned; (+)) [Example 20, (+)-1-[2-[3-(3,4-dichloro-phenyl)-1-(3,4,5-trimethoxy-benzoyl)-pyrrolidin-3-yl]-ethyl]-4-phenylpiperidine-4-carboxylic acid amide], the Kb at NK2 receptor [1] is 2.14 nM. For the same compound, the NK-2 receptor slope at NK2 receptor [1] (SKLKB82#3 cells, NKA, Schild slope, mean (95% confidence limits)) was determined as 1.00.
